Experimental data reported in patent US20070275007A1, “Carbohydrate Antigen-Nanoparticle Conjugates and Uses Thereof as Antimetastatic Agents in Treating Cancer” (The Government of the United States of America, represented …, priority 2003, published 2007).

Assay: Solubility in water and organic solvents
Type: physicochemical

## CC(=O)NC1[C@H](OCCCCCS)OC(CO)[C@H](O)[C@@H]1O[C@@H]1OC(CO)[C@H](O)[C@H](O)C1O (stereo partly drawn) [126E-23]
chloroform
  solubility in chloroform: moderately soluble
Methanol (methanol and other organic solvents)
  solubility in methanol: moderately soluble
water
  solubility in water: soluble
